Assay results: patent publication US6264994A, “Compositions for treating alzheimer's disease and other amyloidoses” (priority 1998, dated 2001)
Structures can show the parent of a compound that is named as a salt.

Key:
Alzheimer's Aβ (1-40) = target: T1, Alzheimer's Aβ (1-40) (Homo sapiens, UniProt P05067); assay: Thioflavin T fluorometry assay of Aβ (1-40) amyloid fibril formation over 1 week; assay type: biochemical; conditions: 1 hour to 1 week, 25 μM Aβ (1-40)
T1 construct: aggregates to fibrils, Thioflavin T fluorometry
Source text: A previously described method of measuring amyloid fibril formation utilizing Thioflavin T fluorometry (H Naiki et al, Lab. Invest. 65:104-110, 1991; H Levine III, Protein Sci. 2:404-410, 1993; H Levine III, Amyloid: Int. J. Exp. Clin. Invest. 2:1-6, 1995; H Naiki and K. Nakakuki, Lab. Invest. 74:374-383,1996) was employed initially to identify potential therapeutic compounds capable of inhibiting Alzheimer's Aβ amyloid fibril formation. Using this sensitive assay, any decreases or increases in fluorescence was previously shown to correlate with a decrease or increase in the amount of amyloid fibrils (H Naiki et al, Lab. Invest. 65:104-110, 1991; H Levine III, Protein Sci. 2:404-410, 1993; H Levine III, Amyloid: Int. J. Exp. Clin. Invest. 2:1-6, 1995; H Naiki and K. Nakakuki, Lab. Invest. 74:374-383, 1996), allowing one to determine the identification and extent of potential inhibitors and/or enhancers of amyloid fibril formation.
In one study, the effects of various compounds on Alzheimer's Aβ (1-40) fibril formation was assessed by Thioflavin T fluorometry. Thioflavin T is known to bind to fibrillar amyloid proteins, and an increase in fluorescence correlates with an increase in amyloid fibril formation, whereas a decrease in fluorescence correlates with a decrease in amyloid fibril formation. The Alzheimer's Aβ protein (1-40) when incubated at 37° C. tends to spontaneously form amyloid fibrils which increase in quantity over time. […]
To assess the effects of each compound on Aβ (1-40) fibril formation, 50 μl aliquots were taken from each tube for analysis at 1 hr, 1 day, 3 days, and 1 week. […] Fluorescence emission at 482 nm was measured on a Turner instrument-model 450 fluorometer at an excitation wavelength of 450 nm. For each determination,the fluorometer was calibrated by zeroing in the presence of the Thioflavin T reagent alone, and by setting the 50 ng/ml riboflavin (Sigma Chemical Co., St. Louis, Mo.) in the Thioflavin T reagent to 1800 fluorescence units. […]

Aβ (1-40) = assay: Solid phase binding assay of Aβ--Aβ interactions (amyloid fibril growth); conditions: FIG. 3; 1.25 mM of test compounds
Source text: In Alzheimer's disease and other amyloidoses, amyloid fibril growth is believed to involve amyloid protein self-interactions (ie. Aβ--Aβ interactions). Any potential effective therapeutic agent for amyloid deposition, accumulation and/or persistence should also be capable of causing an inhibition of amyloid protein self-interactions. This is important for preventing any new amyloid fibril formation when treating Azheimer's disease patients at early stages of the disease. ELISA methodologies (i.e. solid phase binding assays) were therefore used to identify compounds which were capable of inhibiting Aβ--Aβ interactions (i.e. Alzheimer's amyloid fibril growth).
Aβ (1-40) was first labelled with biotin according to the following protocol. 1 mg of Aβ (1-40) (Bachem Inc., Torrance, Calif., USA; Lot #WL934) was dissolved in 200 μl of PBS (pH 8.0) and incubated for 1 week at 37° C. […] The amount of biotin incorporated was then determined using the HABA (2-(4'-hydroxyazo-benzene)benzoic acid) method (according to the manufacturer's protocol; Pierce).
2 μg of unlabelled Aβ in 40 μl of Tris-buffered saline containing 100 mM Tris-HCl, 50 mM NaCl, 3 mM NaN3, pH 7.0 (TBS) was allowed to bind overnight at 4° C. to microtiter wells (Nunc plates, Maxisorb). […] The reaction was stopped with 50 μl of 4N H2 SO4 and read on a Model 450 microplate reader (Biorad, Hercules, Calif., USA) at 490 nm. […]

[1] = tested on: Alzheimer's disease patients; conditions: literature; cited from earlier work
[2] = Example 1, FIG. 1, 1.25 mM test compound (PTI-00700 at 1:227 dilution)

T1 sequence (P05067 672-711): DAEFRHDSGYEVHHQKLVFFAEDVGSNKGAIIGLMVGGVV

SMILES	effect on Aβ (1-40) amyloid fibril formation (Alzheimer's Aβ (1-40); [2])	effect on amyloid fibril growth / Aβ--Aβ interactions (Aβ (1-40))	cognitive improvement in Alzheimer's disease patients [1]	other results
N[C@H]1C(O)O[C@H](CO)[C@@H](O)[C@@H]1O (some centres unmarked) [PTI-00712, glucosamine]				effect on Aβ (1-40) amyloid fibril formation (Alzheimer's Aβ (1-40); Example 2, FIG. 2, 1.25 mM test compound): no inhibitory effect
N[C@H]1C(O)O[C@H](CO)[C@@H](O)[C@@H]1O (some centres unmarked) [PTI-00800, glucosamine]	did not significantly inhibit	no inhibitory effects		
N[C@H]1C(O)O[C@H](CO)[C@@H](O)[C@@H]1O (some centres unmarked) [PTI-00900, glucosamine]	did not significantly inhibit	no inhibitory effects		
Nc1c2c(nc3ccccc13)CCCC2 [Tacrine hydrochloride]			limited success	side effects [1]: liver toxicity
COc1cc2c(cc1OC)C(=O)C(CC1CCN(Cc3ccccc3)CC1)C2 (centres unmarked) [donepezil]			slight cognitive improvement	
